Measurements taken from patent US20230172936A1, “VCP/p97 INHIBITOR FOR THE TREATMENT OF CANCER” (Cleave Therapeutics, Inc., priority 2020, published 2023).
Values joined by “and” are separate entries in the source; they are usually repeats but may differ in a detail not shown here. Equal values may be shown once.

Assays:
[1] = tested on: 30 passage 1 (P1) models of human acute myeloid leukemia; assay: Ex-vivo cytotoxicity by Cell Titer Glo, all models; format: cell-based; settings: 144 h, single agent, 6 days, read-out: IC50s in these models
Experimental: (§1) Acute myelogenous leukemia (AML) is the most common acute leukemia in adults. A hematologic cancer, the disease is highly heterogeneous, with multiple subtypes. About 30% of AML cases harbor a FLT3/ITD mutation making the disease highly proliferative and more aggressive with a high risk of relapse.
(§2) Triplicate wells with media only and duplicate wells of vehicle (0.2% DMSO) were used as negative controls. […] To measure proliferation, untreated cells at days 0 and 6 were evaluated via Cell Titer Glo.
(§3) Protocol: • 1. AML cells were thawed and resuspended in enriched media composed of StemSpan™ Serum-Free Expansion Media (SFEM), 2% heat-inactivated FBS, StemSpan™ CC110 and recombinant human IL-3. • 2. 20,000 cells/well in 100 μL volume were plated on study day 0. • 3. […] Cells were incubated in the presence of drug for 6 days. • 5. On day 6, plates were removed from the incubator and equilibrated to room temperature for 20 minutes. 100 μL/well Cell Titer Glo was added to each well and incubated for 10 minutes before plate reading. • 6. Luminescence was recorded using Tecan Infinite M Plex plate reader.

CTG-2240 = assay: Ex-vivo cytotoxicity by Cell Titer Glo; format: cell-based; settings: Homo sapiens, 144 h; CTG-2240, 6 days
Experimental: as §1, §2, §3

CTG-2235 = assay: Ex-vivo cytotoxicity by Cell Titer Glo; format: cell-based; settings: Homo sapiens, 144 h; CTG-2235, 6 days
Experimental: as §1, §2, §3

CTG-2901 = assay: Ex-vivo cytotoxicity by Cell Titer Glo; format: cell-based; settings: Homo sapiens, 144 h; CTG-2901, 6 days
Experimental: as §1, §2, §3

CTG-2457 = assay: Ex-vivo cytotoxicity by Cell Titer Glo; format: cell-based; settings: Homo sapiens, 144 h; CTG-2457, 6 days
Experimental: as §1, §2, §3

CTG-2243 = assay: Ex-vivo cytotoxicity by Cell Titer Glo; format: cell-based; settings: Homo sapiens, 144 h; CTG-2243, 6 days
Experimental: as §1, §2, §3

CTG-3440 = assay: Ex-vivo cytotoxicity by Cell Titer Glo; format: cell-based; settings: Homo sapiens, 144 h; CTG-3440, 6 days
Experimental: as §1, §2, §3

CTG-2227 = assay: Ex-vivo cytotoxicity by Cell Titer Glo; format: cell-based; settings: Homo sapiens, 144 h; CTG-2227, 6 days
Experimental: as §1, §2, §3

CTG-2234 = assay: Ex-vivo cytotoxicity by Cell Titer Glo; format: cell-based; settings: Homo sapiens, 144 h; CTG-2234, 6 days
Experimental: as §1, §2, §3

CTG-2232 = assay: Ex-vivo cytotoxicity by Cell Titer Glo; format: cell-based; settings: Homo sapiens, 144 h; CTG-2232, 6 days
Experimental: as §1, §2, §3

CTG-2502 = assay: Ex-vivo cytotoxicity by Cell Titer Glo; format: cell-based; settings: Homo sapiens, 144 h; CTG-2502, 6 days
Experimental: as §1, §2, §3

CTG-2774 = assay: Ex-vivo cytotoxicity by Cell Titer Glo; format: cell-based; settings: Homo sapiens, 144 h; CTG-2774, 6 days
Experimental: as §1, §2, §3

MV-411 cell line = assay: Cytotoxicity by Cell Titer Glo; format: cell-based; settings: Homo sapiens, MV4-11, 144 h, 6 days
Experimental: as §1, §2, §3

MLL-AF9 cells = assay: MLL-AF9 allogenic disseminated mouse model of AML; format: in vivo, mice; settings: 90 mg/kg oral gavage, 4 days on/3 days off, vs vehicle
Experimental: Compound 1 was tested in the MLL-AF9 allogenic disseminated mouse model of AML. 200,000 MLL-AF9-cells were injected via tail vein into 6-week-old C57BL/6 male mice (The Jackson Laboratory). Starting at day 8 after cell injection, mice were treated with Compound 1 delivered through oral gavage (90 mg/kg) or vehicle (0.5% methylcellulose) on a dosing schedule of 4 days “on” (administered on each of 4 days sequentially) followed by 3 days “off” (no administration on each of 3 sequential days) for 2 full cycles (two weeks total of 4 on/3 off).
The proportion of MLL-AF9 cells in peripheral blood (n=6 mice per group) was measured at 12 days post-injection of MLL-AF9 cells using flow cytometry. Murine peripheral blood, bone marrow and spleen were collected from each organ, washed with PBS-0.1% BSA-2 mM EDTA and lysed for 10 minutes with red blood cell lysis buffer (Sigma). After two washing steps with PBS-0.1% BSA-2 mM EDTA, bone marrow cells were stained for 30 minutes at 4° C. with corresponding cell surface antibodies for CD45 (CD45 […], Invitrogen). Cells were then washed twice with PBS-0.1% BSA-2 mM EDTA before analysis of 10,000 cells gated for CD45+(high) with BD FACSCanto II (BD Biosciences) to isolate the AML blast population. Statistical significance determined using Mann-Whitney test in comparison with vehicle. Error bars represent mean±SEM. […]

[2] = Adverse events and visual impairment in Phase I subjects
[3] = Human plasma pharmacokinetics (Phase I dose escalation)
From the text: BID dosing may be also tested depending on initial PK assessments. Participants will be evaluated regularly for safety assessments including physical examinations and laboratory testing. Bone marrow aspirates and/or biopsies will be performed at regular intervals, including for assessment of tumor response as per 2017 European LeukemiaNet (ELN) response criteria for AML or 2006 revised International Working Group (IWG) response criteria for MDS. Peripheral blood samples will be collected in Cycle 1 for intensive PK testing and PD biomarker assessments. Additional intensive PK testing will be collected for any participants undergoing intra-patient dose escalation.
A cycle consists of 28 days and the first cycle will comprise the DLT observation period.
Following the protocol of Example 7, additional patients were treated in the dose escalation study.

## Cc1cc2c(C(N)=O)cccc2n1-c1nc2c(c(NCc3ccccc3)n1)CCCN2 [Compound 1, 1-(4-(Benzylamino)-5,6,7,8-tetrahydropyrido[2,3-d]pyrimidin-2-yl)-2-methyl-1H-indole-4-carboxamide]
[1]
  IC50: 200 to 800 nM
CTG-2240
  IC50: 500 nM
CTG-2235
  IC50: 362 nM
CTG-2901
  IC50: 446 nM
CTG-2457
  IC50: 627 nM
CTG-2243
  IC50: 460 nM
CTG-3440
  IC50: 332 nM
CTG-2227
  IC50: 274 nM
CTG-2234
  IC50: 485 nM
CTG-2232
  IC50: 275 nM
CTG-2502
  IC50: 480 nM
CTG-2774
  IC50: 327 nM
MV-411 cell line
  IC50: 262 nM
MLL-AF9 cells; 2 cycles
  overall survival: improved the overall survival
MLL-AF9 cells; 12 days post-injection
  circulating blast counts (MLL-AF9 cells in peripheral blood): reduced circulating blast counts
[2]; 25 mg QD, two subjects
  adverse events: No adverse events
  symptoms of visual impairment: no symptoms of visual impairment
[2]; any dose levels, highest level 275 mg QD
  symptoms of visual impairment or other visual events: No symptoms of visual impairment or other visual events
[2]; at equivalent plasma exposure of Compound 1 and CB-5083
  symptoms of visual impairment or other visual adverse events: no symptoms of visual impairment or other visual adverse events
[3]; 25 mg QD, Day 4
  AR: 0.914
[3]; 25 mg QD, between days 1 and 4
  accumulation: No accumulation
[3]; 100 mg QD, two of three subjects
  exposure with concomitant proton pump inhibitors (PPi): lower exposure
[3]; 25, 50, 100 and 175 mg QD, 9 patients
  exposure level increases between the doses: proportional and linear
[3]; Compound 1 25 mg QD vs CB-5083 40 mg QD
  plasma exposure compared with CB-5083: significantly higher plasma exposure
[3]; Compound 1 25 mg QD vs CB-5083 at greater than 200 mg, FIG. 7
  exposures compared with CB-5083: greater than dosing CB-5083 at greater than 200 mg
[3]; dose escalation 25-175 mg QD, FIG. 8
  exposures compared with CB-5083: greater than dosing CB-5083
[3]; human, in vivo, 25 mg
  Tmax: 2 h
  tmax: 2 h
[3]; human, in vivo, 25 mg, AUC0-inf
  AUC(0-inf): 1.03 µM·h and 425 ng·h/mL
[3]; human, in vivo, 25 mg, AUC0-t
  AUC(0-t): 0.88 µM·h and 364 ng·h/mL
[3]; human, in vivo, 25 mg, Cmax
  Cmax: 198 nM and 81.7 ng/mL
[3]; human, in vivo, 25 mg, half-life
  half-life: 180 to 240 min
[3]; human, in vivo, 25 mg, t1/2
  half-life: 157 min
